According to patent publication US20050032873A1, “3-Amino chroman and 2-amino tetralin derivatives” (Wyeth, priority 2003, published 2005):
Structures can show the parent of a compound that is named as a salt.

Compound	melting point
CCCNC(=O)c1ccc(F)c2c1CC(N(CCCc1c[nH]c3ccc(F)cc13)C1CCC1)CO2 (centres unmarked) (as salt: hydrochloride) [Compound 61, 3-{cyclobutyl[3-(5-fluoro-1H-indol-3-yl)propyl]amino}-8-fluoro-N-propylchromane-5-carboxamide]	67 °C (dec.)
CCCCNC(=O)c1ccc(F)c2c1CC(N(CCCc1c[nH]c3ccc(F)cc13)C1CCC1)CO2 (centres unmarked) (as salt: hydrochloride) [Compound 62, N-butyl-3-{cyclobutyl[3-(5-fluoro-1H-indol-3-yl)propyl]amino}-8-fluorochromane-5-carboxamide]	106 °C (dec.)
CC(C)NC(=O)c1ccc(F)c2c1CC(N(CCCc1c[nH]c3ccc(F)cc13)C1CCC1)CO2 (centres unmarked) (as salt: hydrochloride) [Compound 63, 3-{cyclobutyl[3-(5-fluoro-1H-indol-3-yl)propyl]amino}-8-fluoro-N-isopropylchromane-5-carboxamide]	127 °C (dec.)
O=C(NC1CC1)c1ccc(F)c2c1CC(N(CCCc1c[nH]c3ccc(F)cc13)C1CCC1)CO2 (centres unmarked) (as salt: hydrochloride) [Compound 64, 3-{cyclobutyl[3-(5-fluoro-1H-indol-3-yl)propyl]amino}-N-cyclopropyl-8-fluorochromane-5-carboxamide]	134 °C (dec.)
O=C(NC1CCC1)c1ccc(F)c2c1CC(N(CCCc1c[nH]c3ccc(F)cc13)C1CCC1)CO2 (centres unmarked) (as salt: hydrochloride) [Compound 65, N-cyclobutyl-3-{cyclobutyl[3-(5-fluoro-1H-indol-3-yl)propyl]amino}-8-fluorochromane-5-carboxamide]	135 °C (dec.)
O=C(NC1CCCC1)c1ccc(F)c2c1CC(N(CCCc1c[nH]c3ccc(F)cc13)C1CCC1)CO2 (centres unmarked) (as salt: hydrochloride) [Compound 66, 3-{cyclobutyl[3-(5-fluoro-1H-indol-3-yl)propyl]amino}-N-cyclopentyl-8-fluorochromane-5-carboxamide]	133 °C (dec.)
O=C(NC1CCCCC1)c1ccc(F)c2c1CC(N(CCCc1c[nH]c3ccc(F)cc13)C1CCC1)CO2 (centres unmarked) (as salt: hydrochloride) [Compound 67, 3-{cyclobutyl[3-(5-fluoro-1H-indol-3-yl)propyl]amino}-N-cyclohexyl-8-fluorochromane-5-carboxamide]	134 °C (dec.)
O=C(NCC1CC1)c1ccc(F)c2c1CC(N(CCCc1c[nH]c3ccc(F)cc13)C1CCC1)CO2 (centres unmarked) (as salt: hydrochloride) [Compound 68, 3-{cyclobutyl[3-(5-fluoro-1H-indol-3-yl)propyl]amino}-N-(cyclopropylmethyl)-8-fluorochromane-5-carboxamide]	114 °C (dec.)
O=C(NCc1ccccc1)c1ccc(F)c2c1CC(N(CCCc1c[nH]c3ccc(F)cc13)C1CCC1)CO2 (centres unmarked) (as salt: hydrochloride) [Compound 69, N-benzyl-3-{cyclobutyl[3-(5-fluoro-1H-indol-3-yl)propyl]amino}-8-fluorochromane-5-carboxamide]	124 °C (dec.)
O=C(Nc1ccccc1)c1ccc(F)c2c1CC(N(CCCc1c[nH]c3ccc(F)cc13)C1CCC1)CO2 (centres unmarked) (as salt: hydrochloride) [Compound 70, 3-{cyclobutyl[3-(5-fluoro-1H-indol-3-yl)propyl]amino}-8-fluoro-N-phenylchromane-5-carboxamide]	136 °C (dec.)
CCCCCN(CCCc1c[nH]c2ccc(F)cc12)C1COc2c(F)ccc(C(N)=O)c2C1 (centres unmarked) (as salt: hydrochloride) [Compound 71, 8-fluoro-3-[[3-(5-fluoro-1H-indol-3-yl)propyl](pentyl)amino]chromane-5-carboxamide]	128 °C (dec.)
CCCCN(CCCc1c[nH]c2ccc(F)cc12)C1COc2c(F)ccc(C(N)=O)c2C1 (centres unmarked) (as salt: hydrochloride) [Compound 72, 3-{butyl[3-(5-fluoro-1H-indol-3-yl)propyl]amino}-8-fluorochromane-5-carboxamide]	126 °C (dec.)
CN(C)C(=O)c1ccc(F)c2c1CC(N(CCCc1c[nH]c3ccc(F)cc13)C1CCC1)CO2 (centres unmarked) (as salt: hydrochloride) [Compound 73, 3-{cyclobutyl[3-(5-fluoro-1H-indol-3-yl)propyl]amino}-8-fluoro-N,N-dimethylchromane-5-carboxamide]	126 °C (dec.)
NC(=O)c1ccc(F)c2c1CC(N(CCCc1c[nH]c3ccc(F)cc13)Cc1ccccc1)CO2 (centres unmarked) (as salt: hydrochloride) [Compound 74, 3-{benzyl[3-(5-fluoro-1H-indol-3-yl)propyl]amino}-8-fluorochromane-5-carboxamide]	142 to 150 °C (dec.)
NC(=O)c1ccc(F)c2c1CC(NCCc1c[nH]c3ccc(F)cc13)CO2 (centres unmarked) (as salt: hydrochloride) [Compound 75, 8-fluoro-3-{[2-(5-fluoro-1H-indol-3-yl)ethyl]amino}chromane-5-carboxamide]	134 °C (dec.)
CCN(CCc1c[nH]c2ccc(F)cc12)C1COc2c(F)ccc(C(N)=O)c2C1 (centres unmarked) (as salt: hydrochloride) [Compound 76, 3-{ethyl[2-(5-fluoro-1H-indol-3-yl)ethyl]amino}-8-fluorochromane-5-carboxamide]	127 °C (dec.)

Compound	melting point
CCCN(CCc1c[nH]c2ccc(F)cc12)C1COc2c(F)ccc(C(N)=O)c2C1 (centres unmarked) (as salt: hydrochloride) [Compound 77, 8-fluoro-3-[[2-(5-fluoro-1H-indol-3-yl)ethyl](propyl)amino]chromane-5-carboxamide]	125 °C (dec.)
NC(=O)c1ccc(F)c2c1CC(N(CCc1c[nH]c3ccc(F)cc13)CC1CC1)CO2 (centres unmarked) (as salt: hydrochloride) [Compound 78, 3-{(cyclopropylmethyl)[2-(5-fluoro-1H-indol-3-yl)ethyl]amino}-8-fluorochromane-5-carboxamide]	132 °C (dec.)
NC(=O)c1ccc(F)c2c1CC(NCCCCc1c[nH]c3ccc(F)cc13)CO2 (centres unmarked) (as salt: hydrochloride) [Compound 79, 8-fluoro-3-{[4-(5-fluoro-1H-indol-3-yl)butyl]amino}chromane-5-carboxamide]	52 °C (dec.)
CCN(CCCCc1c[nH]c2ccc(F)cc12)C1COc2c(F)ccc(C(N)=O)c2C1 (centres unmarked) (as salt: hydrochloride) [Compound 80, 3-{ethyl[4-(5-fluoro-1H-indol-3-yl)butyl]amino}-8-fluorochromane-5-carboxamide]	110 °C (dec.)
CCCN(CCCCc1c[nH]c2ccc(F)cc12)C1COc2c(F)ccc(C(N)=O)c2C1 (centres unmarked) (as salt: hydrochloride) [Compound 81, 8-fluoro-3-[[4-(5-fluoro-1H-indol-3-yl)butyl](propyl)amino]chromane-5-carboxamide]	115 °C (dec.)
NC(=O)c1ccc(F)c2c1CC(N(CCCCc1c[nH]c3ccc(F)cc13)C1CCC1)CO2 (centres unmarked) (as salt: hydrochloride) [Compound 83, 3-{cyclobutyl[4-(5-fluoro-1H-indol-3-yl)butyl]amino}-8-fluorochromane-5-carboxamide]	122 °C (dec.)
NC(=O)c1ccc(F)c2c1C[C@@H](N(CCCCc1c[nH]c3ccc(F)cc13)C1CCC1)CO2 (as salt: hydrochloride) [Compound 83a, (3R)-3-{cyclobutyl[4-(5-fluoro-1H-indol-3-yl)butyl]amino}-8-fluorochromane-5-carboxamide]	128 °C (dec.)
NC(=O)c1ccc(F)c2c1C[C@H](N(CCCCc1c[nH]c3ccc(F)cc13)C1CCC1)CO2 (as salt: hydrochloride) [Compound 83b, (3S)-3-{cyclobutyl[4-(5-fluoro-1H-indol-3-yl)butyl]amino}-8-fluorochromane-5-carboxamide]	128 °C (dec.)
CNC(=O)c1ccc(F)c2c1CC(NCCc1c[nH]c3ccc(F)cc13)CO2 (centres unmarked) (as salt: hydrochloride) [Compound 84, 8-fluoro-3-{[2-(5-fluoro-1H-indol-3-yl)ethyl]amino}-N-methylchromane-5-carboxamide]	148 °C (dec.)
CCN(CCc1c[nH]c2ccc(F)cc12)C1COc2c(F)ccc(C(=O)NC)c2C1 (centres unmarked) (as salt: hydrochloride) [Compound 85, 3-{ethyl[2-(5-fluoro-1H-indol-3-yl)ethyl]amino}-8-fluoro-N-methylchromane-5-carboxamide]	125 °C (dec.)
CNC(=O)c1ccc(F)c2c1CC(N(CCc1c[nH]c3ccc(F)cc13)CC1CC1)CO2 (centres unmarked) (as salt: hydrochloride) [Compound 86, 3-{(cyclopropylmethyl)[2-(5-fluoro-1H-indol-3-yl)ethyl]amino}-8-fluoro-N-methylchromane-5-carboxamide]	138 °C (dec.)
CNC(=O)c1ccc(F)c2c1CC(N(CCc1c[nH]c3ccc(F)cc13)C1CCC1)CO2 (centres unmarked) (as salt: hydrochloride) [Compound 87, 3-{cyclobutyl[2-(5-fluoro-1H-indol-3-yl)ethyl]amino}-8-fluoro-N-methylchromane-5-carboxamide]	131 °C (dec.)
CNC(=O)c1ccc(F)c2c1CC(NCCCc1c[nH]c3ccc(F)cc13)CO2 (centres unmarked) (as salt: hydrochloride) [Compound 88, 8-fluoro-3-{[3-(5-fluoro-1H-indol-3-yl)propyl]amino}-N-methylchromane-5-carboxamide]	148 °C (dec.)
CCN(CCCc1c[nH]c2ccc(F)cc12)C1COc2c(F)ccc(C(=O)NC)c2C1 (centres unmarked) (as salt: hydrochloride) [Compound 89, 3-{ethyl[3-(5-fluoro-1H-indol-3-yl)propyl]amino}-8-fluoro-N-methylchromane-5-carboxamide]	118 °C (dec.)
CCCN(CCCc1c[nH]c2ccc(F)cc12)C1COc2c(F)ccc(C(=O)NC)c2C1 (centres unmarked) (as salt: hydrochloride) [Compound 90, 8-fluoro-3-[[3-(5-fluoro-1H-indol-3-yl)propyl](propyl)amino]-N-methylchromane-5-carboxamide]	123 °C (dec.)
CNC(=O)c1ccc(F)c2c1CC(N(CCCc1c[nH]c3ccc(F)cc13)CC1CC1)CO2 (centres unmarked) (as salt: hydrochloride) [Compound 91, 3-{(cyclopropylmethyl)[3-(5-fluoro-1H-indol-3-yl)propyl]amino}-8-fluoro-N-methylchromane-5-carboxamide]	120 °C (dec.)
